For the experiment, the target named is T1, WT/R232 STING protein (Homo sapiens, UniProt Q86WV6, H232R).
T1 construct: host or cells: HEK293T
Put plainly: Luciferase reporter assay in HEK293T-hSTING-Luciferase cells, WT/R232. It counts as cell-based. Particulars: 20 hr stimulation, read-out: R232 Activity (EC50 range). The gist of the method: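 […], read by luminescence from supernatant after 20 h compound stimulation. Cells: clonally selected HEK293T (5×10^5/well) stably carrying WT/R232 human STING and a luciferase reporter under five tandem ISREs fused to an ISG54 minimal promoter.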

The structures appear in SMILES notation. Where only a bound is given, the exact number is not on record here.

T1 sequence (Q86WV6 whole entry H232R): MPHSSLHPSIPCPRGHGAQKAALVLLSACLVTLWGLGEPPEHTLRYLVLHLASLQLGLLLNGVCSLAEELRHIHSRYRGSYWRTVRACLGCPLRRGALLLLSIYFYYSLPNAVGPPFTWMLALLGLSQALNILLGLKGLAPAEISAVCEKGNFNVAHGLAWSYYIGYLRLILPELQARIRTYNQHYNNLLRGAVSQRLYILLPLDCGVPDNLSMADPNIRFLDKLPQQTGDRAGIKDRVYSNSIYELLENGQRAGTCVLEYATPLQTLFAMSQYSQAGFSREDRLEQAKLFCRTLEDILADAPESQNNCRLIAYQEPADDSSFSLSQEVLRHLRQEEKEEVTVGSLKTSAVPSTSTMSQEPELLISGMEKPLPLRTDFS

Consider `Nc1ccc(CNC(=O)c2ccc3c(c2)N(Cc2ccccc2)C(=O)CS3)cn1` [Example 52, N-((6-aminopyridin-3-yl)methyl)-4-benzyl-3-oxo-3,4-dihydro-2H-benzo[b-1,4]thiazine-6-carboxamide], for which the EC50 (commonly the midpoint of the concentration-response curve) was more than 10 µM.
For `O=C(NCc1cc2cnccc2o1)c1ccc2c(c1)N(Cc1cc(F)cc(F)c1)C(=O)CC2` [Example 273, 1-(3,5-difluorobenzyl)-N-(furo[3,2-c]pyridin-2-ylmethyl)-2-oxo-1,2,3,4-tetrahydroquinoline-7-carboxamide], the EC50 was more than 10 µM.
As for `Cc1ccc(CNC(=O)c2cnc3c(c2)N(Cc2cc(F)cc(F)c2)C(=O)C(C)(CO)S3)o1` (stereo not drawn) [Example 209, 1-(3,5-difluorobenzyl)-3-(hydroxymethyl)-3-methyl-N-((5-methylfuran-2-yl)methyl)-2-oxo-2,3-dihydro-1H-pyrido [2,3-b] [1,4]thiazine-7-carboxamide], the 50% effective concentration (EC50) is more than 10 µM.
In the case of `Cc1cnc(CNC(=O)c2ccc3c(c2)N(Cc2ccccc2)C(=O)CS3)o1` [Example 63, 4-benzyl-N-((5-methyloxazol-2-yl)methyl)-3-oxo-3,4-dihydro-2H-benzo[b-1,4]thiazine-6-carboxamide] it was more than 10 µM.
In the case of `O=C(NCc1ccco1)c1ccc2c(c1)N(CCc1cccc(C(F)(F)F)c1)C(=O)CS2` [Example 92, N-(furan-2-ylmethyl)-3-oxo-4-(3-(trifluoromethyl)phenethyl)-3,4-dihydro-2H-benzo[b-1,4]thiazine-6-carboxamide] it was more than 10 µM; in that of `Cc1cccc(CN2C(=O)CSc3ccc(C(=O)NCc4ccco4)cc32)c1C` [Example 12, 4-(2,3-dimethyl-benzyl)-N-(furan-2-ylmethyl)-3-oxo-3,4-dihydro-2H-benzo[b-1,4]thiazine-6-caroxamide], 1 to 10 µM; in that of `O=C(NCc1ccco1)c1ccc2c(c1)N(Cc1ccccc1OC(F)(F)F)C(=O)CS2` [Example 91, N-(furan-2-ylmethyl)-3-oxo-4-(2-(trifluoromethoxy)benzyl)-3,4-dihydro-2H-benzo[b-1,4]thiazine-6-carboxamide], more than 10 µM.
For the compound `N#CCC1Sc2ccc(C(=O)NCc3ccc(F)cc3F)cc2N(Cc2cc(F)cc(F)c2)C1=O` (stereo not drawn) [Example 162, 2-(cyanomethyl)-N-(2,4-difluorobenzyl)-4-(3,5-difluorobenzyl)-3-oxo-3,4-dihydro-2H-benzo[b][1,4] thiazine-6-carboxamide], the concentration for a half-maximal effect (EC50) was 1 to 10 µM.
In the case of `O=C(NCc1ccccc1)c1ccc2c(c1)N(Cc1c(F)cccc1Cl)C(=O)CS2` [Example 126, N-benzyl-4-(2-chloro-6-fluorobenzyl)-3-oxo-3,4-dihydro-2H-benzo[b-1,4]thiazine-6-carboxamide] it was 1 to 10 µM; in that of `O=C(NCc1ccccc1Cl)c1ccc2c(c1)N(Cc1cccc(Cl)c1)C(=O)CS2` [Example 124, N-(2-chlorobenzyl)-4-(3-chlorobenzyl)-3-oxo-3,4-dihydro-2H-benzo[b-1,4]thiazine-6-carboxamide], more than 10 µM.
For `Cc1noc(CNC(=O)c2ccc3c(c2)N(Cc2ccccc2)C(=O)CS3)n1` [Example 66, 4-benzyl-N-((3-methyl-1,2,4-oxadiazol-5-yl)methyl)-3-oxo-3,4-dihydro-2H-benzo[b-1,4]thiazine-6-carboxamide] the value was 1 to 10 µM.
Consider `O=C(NCc1ccco1)c1ccc2c(c1)N(CCc1cccc(Cl)c1)C(=O)CS2` [Example 90, 4-(3-chlorophenethyl)-N-(furan-2-ylmethyl)-3-oxo-3,4-dihydro-2H-benzo[b-1,4]thiazine-6-carboxamide], for which the EC50 was more than 10 µM.
Regarding `N#Cc1cc(C(=O)NCc2ccco2)cc2c1SCC(=O)N2Cc1ccccc1` [Example 219, 4-Benzyl-8-cyano-N-(furan-2-ylmethyl)-3-oxo-3,4-dihydro-2H-benzo[b-1,4]thiazine-6-carboxamide], the 50% effective concentration (EC50) was more than 10 µM.
For `O=C(NCc1ccco1)c1ccc2c(c1)N(Cc1cc(F)ccc1F)C(=O)CS2` [Example 100, 4-(2,5-difluorobenzyl)-N-(furan-2-ylmethyl)-3-oxo-3,4-dihydro-2H-benzo[b-1,4]thiazine-6-carboxamide], the EC50 fell in the range of 1 to 10 µM.
For `O=C(NCc1ccco1)c1ccc2c(c1)N(Cc1nc3ccccc3s1)C(=O)CS2` [Example 6, 4-(benzo[d]thiazol-2-ylmethyl)-N-(furan-2-ylmethyl)-3-oxo-3,4-dihydro-2H-benzo[b-1,4]thiazine-6-carboxamide] the value was more than 10 µM.
For `O=C(NCc1ccccc1-c1ccccc1)c1ccc2c(c1)N(Cc1c(F)cccc1Cl)C(=O)CS2` [Example 46, N-([1,1′-biphenyl]-2-ylmethyl)-4-(2-chloro-6-fluorobenzyl)-3-oxo-3,4-dihyddro-2H-benzo[b][1,4] thiazine-6-carboxamide] the value was more than 10 µM; for `O=C(NCc1ccco1)c1ccc2c(c1)N(Cc1ccc(Cl)cc1)C(=O)CS2` [Example 119, 4-(4-chlorobenzyl)-N-(furan-2-ylmethyl)-3-oxo-3,4-dihydro-2H-benzo[b-1,4]thiazine-6-carboxamide], 1 to 10 µM.
In the case of `Cc1ccc(CNC(=O)c2ccc3c(n2)N(C(C)c2cc(F)cc(F)c2)C(=O)C(C)S3)o1` (stereo not drawn) [Example 204, 4-(1-(3,5-difluorophenyl)ethyl)-2-methyl-N-((5-methylfuran-2-yl)methyl)-3-oxo-3,4-dihydro-2H-pyrido[3,2-b] [1,4] thiazine-6-carboxamide] it was 1 to 10 µM; in that of `O=C(NCc1ccc(F)cc1)c1ccc2c(c1)N(Cc1ccccc1Cl)C(=O)CS2` [Example 122, 4-(2-chlorobenzyl)-N-(4-fluorobenzyl)-3-oxo-3,4-dihydro-2H-benzo[b-1,4]thiazine-6-carboxamide], 1 to 10 µM.
With `O=C(NCc1ccc2ccccc2c1)c1ccc2c(c1)N(Cc1c(F)cccc1Cl)C(=O)CS2` [Example 32, 4-(2-chloro-6-fluorobenzyl)-N-(naphthalen-2-ylmethyl)-3-oxo-3,4-dihydro-2H-benzo[b-1,4]thiazine 6-carboxamide], the half-maximal effective concentration (EC50) was 1 to 10 µM.
For `O=C(NCc1c(F)cc(F)cc1F)c1ccc2c(n1)N(Cc1cc(F)cc(F)c1)C(=O)CC2` [Example 283, (3,5-difluorobenzyl)-7-oxo-N-(2,4,6-trifluorobenzyl)-5,6,7,8-tetrahydro-1,8-naphthyridine-2-carboxamide] the value was 1 to 10 µM.
For `O=C(NCc1ccco1)c1ccc2c(c1)N(Cc1cc(Cl)cc(C(F)(F)F)c1)C(=O)CS2` [Example 102, 4-(3-chloro-5-(trifluoromethyl)benzyl)-N-(furan-2-ylmethyl)-3-oxo-3,4-dihydro-2H-benzo[b-1,4]thiazine-6-carboxamide] the value was 1 to 10 µM; for `O=C(NCC1CCCCC1)c1ccc2c(c1)N(Cc1ccccc1F)C(=O)CS2` [Example 16, N-(cyclo-hexylmethyl)-4-(2-fluoro-benzyl)-3-oxo-3,4-dihydro-2H-benzo[b-1,4]thiazine-6-carboxamide], 1 to 10 µM.
With `CC1Sc2ccc(C(=O)NCc3cnccn3)cc2N(Cc2cc(F)cc(F)c2)C1=O` (stereo not drawn) [Example 168, 4-(3,5-difluorobenzyl)-2-methyl-3-oxo-N-(pyrazin-2-ylmethyl)-3,4-dihydro-2H-benzo [b][1,4]thiazine-6-carboxamide], the EC50 was more than 10 µM.
In the case of `CC1(C)Sc2ccc(C(=O)NCc3ccco3)cc2N(Cc2ccccc2)C1=O` [Example 132, 4-Benzyl-N-(furan-2-ylmethyl)-2,2-dimethyl-3-oxo-3,4-dihydro-2H-benzo[b-1,4]thiazine-6-carboxamide] it was more than 10 µM; in that of `O=C(NCc1ccco1)c1ccc2c(c1)N(Cc1cccc(Cl)c1Cl)C(=O)CS2` [Example 11, 4-(2,3-dichloro-benzyl)-N-(furan-2-ylmethyl)-3-oxo-3,4-dihydro-2H-benzo[b-1,4]thiazine-6-carboxamide], 1 to 10 µM; in that of `CN1CCCC(CN2C(=O)CSc3ccc(C(=O)NCc4ccco4)cc32)C1` (stereo not drawn) [Example 98, N-(furan-2-ylmethyl)-4-((1-methylpiperidin-3-yl)methyl)-3-oxo-3,4-dihydro-2H-benzo[b-1,4]thiazine-6-carboxamide], more than 10 µM.
For `CC1(CC(=O)O)Sc2ccc(C(=O)NCc3ccco3)cc2N(Cc2ccccc2F)C1=O` (stereo not drawn) [Example 139, 2-(4-(2-fluorobenzyl)-6-((furan-2-ylmethyl)carbamoyl)-2-methyl-3-oxo-3,4-dihydro-2H-benzo[b-1,4]thiazin-2-yl)acetic acid] the value was more than 10 µM.
In the case of `O=C(CN1C(=O)CSc2ccc(C(=O)NCc3ccco3)cc21)Nc1ccncc1` [Example 4, N-(furan-2-ylmethyl)-3-oxo-4-(2-oxo-2-(pyridin-4-ylamino)ethyl)-3,4-dihydro-2H-benzo[b-1,4]-thiazine-6-carboxamide] it was more than 10 µM.
For the compound `O=C(NCc1ccco1)c1cnc2c(c1)N(Cc1ccccc1)C(=O)CS2` [Example 180, 1-benzyl-N-(furan-2-ylmethyl)-2-oxo-2,3-dihydro-1H-pyrido[2,3-b-1,4]thiazine-7-carboxamide], the EC50 was more than 10 µM.
For `CC(c1ccccc1)N1C(=O)CSc2ccc(C(=O)NCc3ccco3)cc21` (stereo not drawn) [Example 29, N-(furan-2-ylmethyl)-3-oxo-4-(1-phenylethyl)-3,4-dihydro-2H-benzo[b-1,4]thiazine-6-carboxamide] the value was more than 10 µM; for `NC(=O)CC1Sc2ccc(C(=O)NCc3ccc(F)cc3F)cc2N(Cc2cc(F)cc(F)c2)C1=O` (stereo not drawn) [Example 176, 2-(2-amino-2-oxoethyl)-N-(2,4-difluorobenzyl)-4-(3,5-difluorobenzyl)-3-oxo-3,4-dihydro-2H-benzo[b] [1,4]thiazine-6-carboxamide], more than 10 µM.
For `O=C(NCc1ccco1)c1ccc2c(c1)N(CC1CCCCC1)C(=O)CS2` [Example 15, 4-(cyclohexyl-methyl)-N-(furan-2-ylmethyl)-3-oxo-3,4-dihydro-2H-benzo[b-1,4]thiazine-6-carboxamide] the value was more than 10 µM.

The record behind these values is patent US20200138827A1, “SMALL MOLECULE MODULATORS OF HUMAN STING” (Curadev Pharma Limited, priority 2017, published 2020).
